Results on two compounds are retold here after paper PMC12141336, “A dual inhibitor of TrxR1 and XIAP induces pyroptosis in melanoma” (Frontiers in Cell and Developmental Biology, 2025).

What is called Kd is the equilibrium constant for the complex coming apart. A word on the IC50: it is the midpoint of a concentration-inhibition curve.

The target in data set [1] is T1, TrxR1 (thioredoxin reductase 1) (Rattus norvegicus, UniProt O89049).
T1 construct: gene Txnrd1
T1 sequence (O89049 1-499): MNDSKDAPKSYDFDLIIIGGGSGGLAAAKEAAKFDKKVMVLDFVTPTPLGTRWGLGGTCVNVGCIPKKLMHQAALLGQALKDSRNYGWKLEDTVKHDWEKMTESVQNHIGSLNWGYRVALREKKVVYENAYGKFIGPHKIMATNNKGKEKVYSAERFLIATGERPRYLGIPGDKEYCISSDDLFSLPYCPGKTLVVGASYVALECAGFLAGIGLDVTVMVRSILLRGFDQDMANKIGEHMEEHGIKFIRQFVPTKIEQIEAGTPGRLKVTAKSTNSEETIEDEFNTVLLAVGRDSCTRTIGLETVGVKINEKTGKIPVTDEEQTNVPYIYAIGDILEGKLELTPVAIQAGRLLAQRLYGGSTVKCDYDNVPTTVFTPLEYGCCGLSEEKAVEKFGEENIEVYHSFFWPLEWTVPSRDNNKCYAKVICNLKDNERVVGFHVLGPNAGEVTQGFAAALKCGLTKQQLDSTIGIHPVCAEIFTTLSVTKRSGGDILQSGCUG
The data set can be described thus: fluorescence quenching (Stern-Volmer) with GST as control; also DTNB assay on recombinant TrxR1, IC50 […]. Format: binding.

The target in data set [2] is T1, TrxR1 (thioredoxin reductase 1). Put plainly: DTNB assay on purified recombinant TrxR1, […] h incubation.

In the case of `CC(=O)CC#[C][Au][P](c1ccccc1)(c1ccccc1)C1CCCCC1` [TRI-03], in data set [1], the Kd is 310 ± 50 nM. Consider `CC[P](CC)(CC)=[Au][S][C@@H]1O[C@H](COC(C)=O)[C@@H](OC(C)=O)[C@H](OC(C)=O)[C@H]1OC(C)=O` [auranofin], for which, in data set [2], the IC50 was 1470 ± 30 nM.
